In BindingDB's records for doi:10.1021/jm00157a007 (1987) one finds Ki data, which are given here for 5 compounds.

SMILES strings stand for the structures.

For the test, the target named is Chymotrypsinogen A (Bos taurus) (UniProt P00766). The test can be described thus: In vitro binding affinity towards alpha-chymotrypsin from bovine pancreas.
Regarding `O=c1oc(Cl)ccc1-c1ccccc1` [6-Chloro-3-phenyl-pyran-2-one], the Ki (commonly the equilibrium dissociation constant of an inhibitor or competing ligand from its target) turned out to be 0.27 µM.

For `O=c1ccc(-c2ccccc2)c(Cl)o1` [6-Chloro-5-phenyl-pyran-2-one], the Ki is 1.3 µM.

The compound `CCCCc1ccc(=O)oc1Cl` [5-Butyl-6-chloro-pyran-2-one] gave a Ki of 3.9 µM.

`O=c1ccc(-c2ccccc2)co1` [5-Phenyl-pyran-2-one]: the Ki came out at 75 µM.

On to `CCc1ccc(=O)oc1Cl` [6-Chloro-5-ethyl-pyran-2-one], for which the affinity, expressed as Ki, was 5.6 µM.
